Earlier results, collected in patent publication US20230270982A1, “DEVICES FOR REGIO-SPECIFIC RELEASE OF CARRIED DRUG AT ILEOCECAL REGION” (Teva Pharmaceutical Industries Ltd., priority 2020, published 2023).

Assays:
[1] = oral ester prodrug; extensive intestinal esterase degradation
[2] = test system: inflammatory bowel disease in mice; conditions: given topically

Molecule	bioavailability of the prodrug [1]	treating UC [2]
CC(C)OC(=O)OCOP(=O)(CO[C@H](C)Cn1cnc2c(N)ncnc21)OCOC(=O)OC(C)C [Tenofovir disoproxil]	about 30%	–
glatiramer acetate	–	effective
